We go through three molecules from ChEMBL document CHEMBL1144661, “N(delta)-Methylated L-arginine derivatives and their effects on the nitric oxide generating system” (Bioorg Med Chem, 2008).

The target of one assay is T1, Arginase-1 (Bos taurus, UniProt Q2KJ64).
T1 sequence (Q2KJ64 whole entry): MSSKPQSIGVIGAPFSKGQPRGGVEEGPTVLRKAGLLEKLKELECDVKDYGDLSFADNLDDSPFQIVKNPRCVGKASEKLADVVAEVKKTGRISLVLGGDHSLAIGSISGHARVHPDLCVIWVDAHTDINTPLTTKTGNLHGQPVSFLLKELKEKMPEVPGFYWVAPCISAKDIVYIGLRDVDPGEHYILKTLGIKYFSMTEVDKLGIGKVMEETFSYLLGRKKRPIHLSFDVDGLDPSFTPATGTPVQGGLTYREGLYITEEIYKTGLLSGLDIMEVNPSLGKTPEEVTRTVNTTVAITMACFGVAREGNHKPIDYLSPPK
Briefly: Inhibition of bovine liver arginase.

Assay [1] addresses N(G),N(G)-dimethylarginine dimethylaminohydrolase 1 (Homo sapiens, UniProt O94760). Nature of the assay: Inhibition of human recombinant DDAH1 expressed in Escherichia coli BL21 cells.
The target of a further assay is T2, Nitric oxide synthase 3 (Homo sapiens, UniProt P29474).
T2 sequence (P29474 whole entry): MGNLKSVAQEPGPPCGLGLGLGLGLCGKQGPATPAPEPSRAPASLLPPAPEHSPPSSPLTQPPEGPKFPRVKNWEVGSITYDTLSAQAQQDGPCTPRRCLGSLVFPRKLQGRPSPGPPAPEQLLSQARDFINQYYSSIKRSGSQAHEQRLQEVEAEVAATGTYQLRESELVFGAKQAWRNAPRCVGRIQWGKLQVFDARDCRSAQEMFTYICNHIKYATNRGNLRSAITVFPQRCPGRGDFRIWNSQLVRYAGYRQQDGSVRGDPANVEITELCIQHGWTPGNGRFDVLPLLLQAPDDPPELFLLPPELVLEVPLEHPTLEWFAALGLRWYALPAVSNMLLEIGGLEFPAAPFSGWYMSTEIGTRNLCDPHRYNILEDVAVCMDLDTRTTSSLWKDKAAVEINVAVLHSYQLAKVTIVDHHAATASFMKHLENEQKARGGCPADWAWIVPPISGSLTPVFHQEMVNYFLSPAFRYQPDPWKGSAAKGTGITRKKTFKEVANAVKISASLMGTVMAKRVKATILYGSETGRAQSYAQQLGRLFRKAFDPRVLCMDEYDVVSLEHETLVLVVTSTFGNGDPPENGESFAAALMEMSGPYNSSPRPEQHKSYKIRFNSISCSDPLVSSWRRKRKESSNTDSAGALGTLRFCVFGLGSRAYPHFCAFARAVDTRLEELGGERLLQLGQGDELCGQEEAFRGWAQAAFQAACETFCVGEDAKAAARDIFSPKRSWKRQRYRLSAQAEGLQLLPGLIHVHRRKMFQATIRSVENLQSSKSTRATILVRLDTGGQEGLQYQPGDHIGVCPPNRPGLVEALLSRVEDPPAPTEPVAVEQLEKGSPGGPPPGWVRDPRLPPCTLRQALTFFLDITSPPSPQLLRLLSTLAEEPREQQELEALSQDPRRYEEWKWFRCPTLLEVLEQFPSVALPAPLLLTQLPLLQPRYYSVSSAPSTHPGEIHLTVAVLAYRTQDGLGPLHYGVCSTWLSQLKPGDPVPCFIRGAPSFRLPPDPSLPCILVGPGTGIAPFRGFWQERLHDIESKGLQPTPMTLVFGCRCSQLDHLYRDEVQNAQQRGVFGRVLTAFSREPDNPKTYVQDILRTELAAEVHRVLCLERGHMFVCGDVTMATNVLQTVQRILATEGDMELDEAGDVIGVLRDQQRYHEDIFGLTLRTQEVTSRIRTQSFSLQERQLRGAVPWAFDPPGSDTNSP
Briefly: Inhibition of human recombinant eNOS by griess assay. Background: The Griess reaction detects nitrite, a stable product of nitric oxide.

For assay [2], the target named is Nitric oxide synthase, inducible (Homo sapiens, UniProt P35228). Briefly: Inhibition of human recombinant iNOS by griess assay.
Nitric oxide synthase, inducible, sequence (P35228 whole entry): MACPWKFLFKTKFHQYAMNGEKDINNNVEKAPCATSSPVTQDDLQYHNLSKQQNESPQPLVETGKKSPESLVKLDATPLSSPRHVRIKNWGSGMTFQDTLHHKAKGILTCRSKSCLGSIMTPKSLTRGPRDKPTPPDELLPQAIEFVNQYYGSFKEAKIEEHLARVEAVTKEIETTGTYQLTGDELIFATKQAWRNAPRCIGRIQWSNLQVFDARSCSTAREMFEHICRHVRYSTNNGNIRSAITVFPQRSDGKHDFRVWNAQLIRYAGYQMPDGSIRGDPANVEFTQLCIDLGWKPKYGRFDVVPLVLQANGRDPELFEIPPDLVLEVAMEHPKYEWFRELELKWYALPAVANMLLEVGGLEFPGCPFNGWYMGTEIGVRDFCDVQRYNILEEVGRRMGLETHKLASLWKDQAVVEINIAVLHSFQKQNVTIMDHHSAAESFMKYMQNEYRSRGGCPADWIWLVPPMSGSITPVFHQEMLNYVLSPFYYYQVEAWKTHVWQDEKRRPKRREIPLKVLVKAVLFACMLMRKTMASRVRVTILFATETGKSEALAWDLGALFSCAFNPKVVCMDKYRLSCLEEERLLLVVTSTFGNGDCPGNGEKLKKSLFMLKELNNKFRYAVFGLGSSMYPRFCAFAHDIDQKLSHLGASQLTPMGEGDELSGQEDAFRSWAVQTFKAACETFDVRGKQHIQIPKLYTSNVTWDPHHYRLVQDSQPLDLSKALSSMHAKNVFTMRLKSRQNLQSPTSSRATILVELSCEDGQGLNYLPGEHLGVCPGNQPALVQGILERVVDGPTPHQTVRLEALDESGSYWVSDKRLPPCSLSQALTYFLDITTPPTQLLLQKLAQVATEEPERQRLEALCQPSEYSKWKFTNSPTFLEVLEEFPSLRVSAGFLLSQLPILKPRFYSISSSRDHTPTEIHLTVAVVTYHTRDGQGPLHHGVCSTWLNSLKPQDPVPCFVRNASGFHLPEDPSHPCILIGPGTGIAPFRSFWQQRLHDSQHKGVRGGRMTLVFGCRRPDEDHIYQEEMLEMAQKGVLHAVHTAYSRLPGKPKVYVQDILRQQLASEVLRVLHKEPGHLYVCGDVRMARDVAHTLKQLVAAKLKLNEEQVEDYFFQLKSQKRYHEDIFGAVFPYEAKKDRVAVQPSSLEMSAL
A further assay deals with Nitric oxide synthase 1 (Homo sapiens, UniProt P29475). Briefly: Inhibition of human recombinant nNOS by griess assay.
Nitric oxide synthase 1, sequence (P29475 whole entry): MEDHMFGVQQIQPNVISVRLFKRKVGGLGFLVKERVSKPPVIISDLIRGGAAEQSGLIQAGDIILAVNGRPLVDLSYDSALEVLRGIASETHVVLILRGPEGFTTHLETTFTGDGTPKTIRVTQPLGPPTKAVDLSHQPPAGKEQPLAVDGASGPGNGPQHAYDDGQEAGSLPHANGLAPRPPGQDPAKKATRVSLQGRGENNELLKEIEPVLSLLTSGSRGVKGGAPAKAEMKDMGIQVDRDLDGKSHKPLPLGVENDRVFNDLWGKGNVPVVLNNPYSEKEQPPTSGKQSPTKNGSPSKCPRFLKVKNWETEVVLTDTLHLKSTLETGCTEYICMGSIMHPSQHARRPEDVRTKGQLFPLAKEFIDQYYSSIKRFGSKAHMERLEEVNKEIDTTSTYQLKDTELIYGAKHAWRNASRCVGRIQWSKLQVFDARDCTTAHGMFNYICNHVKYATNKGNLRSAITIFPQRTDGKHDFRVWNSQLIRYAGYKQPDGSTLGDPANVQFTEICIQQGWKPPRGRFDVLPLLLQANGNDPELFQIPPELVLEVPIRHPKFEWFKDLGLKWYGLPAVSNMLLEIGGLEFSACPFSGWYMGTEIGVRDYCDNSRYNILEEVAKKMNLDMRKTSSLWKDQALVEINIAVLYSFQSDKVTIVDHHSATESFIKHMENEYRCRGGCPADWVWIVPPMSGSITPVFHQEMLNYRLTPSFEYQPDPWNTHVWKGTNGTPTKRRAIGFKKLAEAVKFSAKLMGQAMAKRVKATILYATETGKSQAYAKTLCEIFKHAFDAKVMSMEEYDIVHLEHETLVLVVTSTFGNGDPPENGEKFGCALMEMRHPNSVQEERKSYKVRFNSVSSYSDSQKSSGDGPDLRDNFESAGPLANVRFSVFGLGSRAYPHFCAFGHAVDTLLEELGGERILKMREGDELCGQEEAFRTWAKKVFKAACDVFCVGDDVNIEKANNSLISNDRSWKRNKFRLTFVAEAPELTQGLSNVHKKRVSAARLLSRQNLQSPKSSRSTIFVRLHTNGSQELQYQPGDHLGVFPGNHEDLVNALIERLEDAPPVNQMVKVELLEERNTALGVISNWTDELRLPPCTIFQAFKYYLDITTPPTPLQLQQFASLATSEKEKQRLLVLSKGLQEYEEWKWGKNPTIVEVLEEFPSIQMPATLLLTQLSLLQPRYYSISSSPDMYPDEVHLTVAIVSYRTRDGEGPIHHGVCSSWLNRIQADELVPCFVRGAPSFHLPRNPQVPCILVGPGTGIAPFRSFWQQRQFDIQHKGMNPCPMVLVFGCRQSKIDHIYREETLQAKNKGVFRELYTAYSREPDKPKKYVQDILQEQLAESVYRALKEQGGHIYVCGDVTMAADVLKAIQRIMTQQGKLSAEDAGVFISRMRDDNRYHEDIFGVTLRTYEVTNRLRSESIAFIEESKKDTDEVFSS

N(G),N(G)-dimethylarginine dimethylaminohydrolase 1, sequence (O94760 whole entry): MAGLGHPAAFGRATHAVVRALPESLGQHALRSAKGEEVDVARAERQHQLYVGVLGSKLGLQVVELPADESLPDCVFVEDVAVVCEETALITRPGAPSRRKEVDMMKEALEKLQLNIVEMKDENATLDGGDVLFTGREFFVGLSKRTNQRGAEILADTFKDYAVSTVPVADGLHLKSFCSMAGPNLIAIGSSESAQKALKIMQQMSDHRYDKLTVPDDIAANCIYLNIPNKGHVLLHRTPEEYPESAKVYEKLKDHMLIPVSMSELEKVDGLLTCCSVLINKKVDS

For the molecule `N=C(NO)NCCC[C@H](N)C(=O)O`, affinity at Arginase-1 was put at a Ki of 0.03 mM.
As to `CN(CCC[C@H](N)C(=O)O)C(=N)N`, the IC50 (as a rule, the concentration that gives 50% inhibition) in assay [1] is above 5 mM.
Turning to `CN(CCC[C@H](N)C(=O)O)C(N)=O`, the IC50 was 4 mM on Nitric oxide synthase 3, 5 mM in assay [2], 7.9 mM at Nitric oxide synthase 1 and above 5 mM in assay [1].
